Each compound was assayed on batrachotoxin (BTX) binding site of the sodium channel (assay: Affinity for the batrachotoxin (BTX) binding site of the sodium channel ([3H]-Batrachotoxinin A20 benzoate, rat cerebrocortex synaptosomes)). Settings: [3H]-Batrachotoxinin A20 benzoate 10 nM, test concentration not given.
Compound `CCc1ccc(C(=O)Nc2ncc3c(n2)CCN(C(=O)c2ccc(Cl)c(Cl)c2)C3)cc1` [Example 101, N-[6-(3,4-dichloro-benzoyl)-5,6,7,8-tetrahydro-pyrido[4,3-d]pyrimidin-2-yl]-4-ethyl-benzamide] has a BTX inhibition of 68.
Work on `O=C(Nc1ncc2c(n1)CCN(S(=O)(=O)c1ccc(OC(F)(F)F)cc1)C2)c1ccc(Cl)c(Cl)c1` [Example 134, 3,4-dichloro-N-[6-(4-trifluoromethoxy-benzenesulfonyl)-5,6,7,8-tetrahydro-pyrido[4,3-d]pyrimidin-2-yl]-benzamide] yielded a BTX inhibition of 64.
`O=C(Nc1ncc2c(n1)CCN(C(=O)Cc1ccc(C(F)(F)F)cc1)C2)c1ccccc1` [Example 155, N-{6-[2-(4-trifluoromethyl-phenyl)-acetyl]-5,6,7,8-tetrahydro-pyrido[4,3-d]pyrimidin-2-yl}-benzamide] gave a BTX inhibition of 62.
Compound `COc1ccccc1C(=O)Nc1ncc2c(n1)CCN(S(=O)(=O)c1ccc(Cl)s1)C2` [Example 86, N-[6-(5-chloro-thiophene-2-sulfonyl)-5,6,7,8-tetrahydro-pyrido[4,3-d]pyrimidin-2-yl]-2-methoxy-benzamide] has a BTX inhibition of 62.
Work on `CCCCCC(=O)NC1CCc2nc(NC(=O)c3ccc(F)cc3)ncc2C1` (centres unmarked) [Example 128, 4-fluoro-N-(6-hexanoylamino-5,6,7,8-tetrahydro-quinazolin-2-yl)-benzamide] yielded a BTX inhibition of 33.
Work on `CCc1ccc(C(=O)Nc2ncc3c(n2)CCN(S(=O)(=O)c2ccccc2Cl)C3)cc1` [Example 114, N-[6-(2-chloro-benzenesulfonyl)-5,6,7,8-tetrahydro-pyrido[4,3-d]pyrimidin-2-yl]-4-ethyl-benzamide] yielded a BTX inhibition of 82.
In the case of `O=C(Nc1ncc2c(n1)CCN(S(=O)(=O)c1cccs1)C2)c1ccc(F)c(F)c1` [Example 72, 3,4-difluoro-N-[6-(thiophene-2-sulfonyl)-5,6,7,8-tetrahydro-pyrido[4,3-d]pyrimidin-2-yl]-benzamide], the BTX inhibition is reported as 31.
Compound `COc1ccccc1C(=O)Nc1ncc2c(n1)CCN(C(=O)COCc1ccccc1)C2` [Example 195, N-[6-(2-benzyloxy-acetyl)-5,6,7,8-tetrahydro-pyrido[4,3-d]pyrimidin-2-yl]-2-methoxy-benzamide] has a BTX inhibition of 35.
For `O=C(Nc1ncc2c(n1)CCN(C(=O)CCC1CCCC1)C2)c1ccncc1` [Example 132, N-[6-(3-cyclopentyl-propionyl)-5,6,7,8-tetrahydro-pyrido[4,3-d]pyrimidin-2-yl]-isonicotinamide], the BTX inhibition was 72.
`CCc1ccc(C(=O)Nc2ncc3c(n2)CCN(S(=O)(=O)c2ccsc2)C3)cc1` [Example 121, 4-ethyl-N-[6-(thiophene-3-sulfonyl)-5,6,7,8-tetrahydro-pyrido[4,3-d]pyrimidin-2-yl]-benzamide] was tested, and the BTX inhibition was 57.
`CCCCC(C)CCC(=O)N1CCc2nc(NC(=O)c3cccc4ccccc34)ncc2C1` (centres unmarked) [Example 193, naphthalene-1-carboxylic acid [6-(4-methyl-octanoyl)-5,6,7,8-tetrahydro-pyrido[4,3-d]pyrimidin-2-yl]-amide] was tested, and the BTX inhibition was 84.
Compound `CCc1ccc(C(=O)Nc2ncc3c(n2)CCN(S(=O)(=O)c2ccc(OC)cc2)C3)cc1` [Example 172, 4-ethyl-N-[6-(4-methoxy-benzenesulfonyl)-5,6,7,8-tetrahydro-pyrido[4,3-d]pyrimidin-2-yl]-benzamide] has a BTX inhibition of 57.
`Cc1oc(-c2ccccc2)cc1C(=O)N1CCc2nc(NC(=O)c3ccccc3F)ncc2C1` [Example 137, 2-fluoro-N-[6-(2-methyl-5-phenyl-furan-3-carbonyl)-5,6,7,8-tetrahydro-pyrido[4,3-d]pyrimidin-2-yl]-benzamide] gave a BTX inhibition of 43.
With `CCOc1ccccc1C(=O)Nc1ncc2c(n1)CCN(S(=O)(=O)c1ccccc1C(=O)OC)C2` [Example 82, 2-[2-(2-ethoxy-benzoylamino)-7,8-dihydro-5H-pyrido[4,3-d]pyrimidine-6-sulfonyl]-benzoic acid methyl ester] the BTX inhibition was 38.
In the case of `CCCC(=O)Nc1ncc2c(n1)CCC(NS(=O)(=O)c1ccc(C(C)(C)CC)cc1)C2` (centres unmarked) [Example 167, N-{6-[4-(1,1-dimethyl-propyl)-benzenesulfonylamino]-5,6,7,8-tetrahydro-quinazolin-2-yl}-butyramide], the BTX inhibition is reported as 51.
`O=C(Nc1ncc2c(n1)CCN(S(=O)(=O)c1ccc(Cl)s1)C2)c1cccc2ccccc12` [Example 117, naphthalene-1-carboxylic acid [6-(5-chloro-thiophene-2-sulfonyl)-5,6,7,8-tetrahydro-pyrido[4,3-d]pyrimidin-2-yl]-amide] was tested, and the BTX inhibition was 37.
`CC(C)(C)c1ccc(C(=O)Nc2ncc3c(n2)CCN(C(=O)c2csc4ccccc24)C3)cc1` [Example 184, N-[6-(benzo[b]thiophene-3-carbonyl)-5,6,7,8-tetrahydro-pyrido[4,3-d]pyrimidin-2-yl]-4-tert-butyl-benzamide] showed a BTX inhibition of 87.
Work on `Cc1cccc(C(=O)Nc2ncc3c(n2)CCN(S(=O)(=O)c2sc(C)nc2C)C3)c1` [Example 68, N-[6-(2,4-dimethyl-thiazole-5-sulfonyl)-5,6,7,8-tetrahydro-pyrido[4,3-d]pyrimidin-2-yl]-3-methyl-benzamide] yielded a BTX inhibition of 35.
`O=C(Nc1ncc2c(n1)CCN(S(=O)(=O)c1ccc(Cl)cc1)C2)c1ccc(Cl)c(Cl)c1` [Example 71, 3,4-dichloro-N-[6-(4-chloro-benzenesulfonyl)-5,6,7,8-tetrahydro-pyrido[4,3-d]pyrimidin-2-yl]-benzamide] was tested, and the BTX inhibition was 69.
`O=C(Nc1ncc2c(n1)CCN(C(=O)c1ccc(Cl)c(Cl)c1)C2)c1ccccc1F` [Example 113, N-[6-(3,4-dichloro-benzoyl)-5,6,7,8-tetrahydro-pyrido[4,3-d]pyrimidin-2-yl]-2-fluoro-benzamide] was tested, and the BTX inhibition was 38.
In the case of `O=C(Nc1ncc2c(n1)CCC(NS(=O)(=O)c1ccc3c(c1)CN(C(=O)C(F)(F)F)CC3)C2)c1cccs1` (centres unmarked) [Example 147, thiophene-2-carboxylic acid {6-[2-(2,2,2-trifluoro-acetyl)-1,2,3,4-tetrahydro-isoquinoline-7-sulfonylamino]-5,6,7,8-tetrahydro-quinazolin-2-yl}-amide], the BTX inhibition is reported as 48.
In the case of `O=C(Nc1ncc2c(n1)CCN(C(=O)c1ccc(F)cc1F)C2)c1ccc(Cl)cc1` [Example 152, 4-chloro-N-[6-(2,4-difluoro-benzoyl)-5,6,7,8-tetrahydro-pyrido[4,3-d]pyrimidin-2-yl]-benzamide], the BTX inhibition is reported as 55.
With `CCc1ccc(C(=O)Nc2ncc3c(n2)CCN(C(=O)c2ccc(-n4cccn4)cc2)C3)cc1` [Example 74, 4-ethyl-N-[6-(4-pyrazol-1-yl-benzoyl)-5,6,7,8-tetrahydro-pyrido[4,3-d]pyrimidin-2-yl]-benzamide] the BTX inhibition was 66.
For `Cc1nc(C)c(S(=O)(=O)N2CCc3nc(NC(=O)c4ccc(Cl)cc4)ncc3C2)s1` [Example 79, 4-chloro-N-[6-(2,4-dimethyl-thiazole-5-sulfonyl)-5,6,7,8-tetrahydro-pyrido[4,3-d]pyrimidin-2-yl]-benzamide], the BTX inhibition was 34.
`Cc1ccc(C(=O)Nc2ncc3c(n2)CCN(S(=O)(=O)c2cc(F)ccc2C)C3)cc1` [Example 107, N-[6-(5-fluoro-2-methyl-benzenesulfonyl)-5,6,7,8-tetrahydro-pyrido[4,3-d]pyrimidin-2-yl]-4-methyl-benzamide] showed a BTX inhibition of 73.
Compound `Cc1cc(C(=O)NC2CCc3nc(NC(=O)c4cccs4)ncc3C2)ccc1Br` (centres unmarked) [Example 115, thiophene-2-carboxylic acid [6-(4-bromo-3-methyl-benzoylamino)-5,6,7,8-tetrahydro-quinazolin-2-yl]-amide] has a BTX inhibition of 82.
With `Cc1cccc(C(=O)Nc2ncc3c(n2)CCN(S(=O)(=O)c2cccc(C)c2)C3)c1` [Example 116, 3-methyl-N-[6-(toluene-3-sulfonyl)-5,6,7,8-tetrahydro-pyrido[4,3-d]pyrimidin-2-yl]-benzamide] the BTX inhibition was 53.
Work on `Cc1ccc(C(=O)Nc2ncc3c(n2)CCN(C(=O)COc2cccc(Cl)c2)C3)cc1` [Example 189, N-{6-[2-(3-chloro-phenoxy)-acetyl]-5,6,7,8-tetrahydro-pyrido[4,3-d]pyrimidin-2-yl}-4-methyl-benzamide] yielded a BTX inhibition of 55.
In the case of `Cc1ccc(C(=O)N2CCc3nc(NC(=O)c4ccc(C(C)(C)C)cc4)ncc3C2)cc1[N+](=O)[O-]` [Example 92, 4-tert-butyl-N-[6-(4-methyl-3-nitro-benzoyl)-5,6,7,8-tetrahydro-pyrido[4,3-d]pyrimidin-2-yl]-benzamide], the BTX inhibition is reported as 75.
With `O=C(Nc1ncc2c(n1)CCN(C(=O)c1sc3ccccc3c1Cl)C2)c1cccs1` [Example 110, thiophene-2-carboxylic acid [6-(3-chloro-benzo[b]thiophene-2-carbonyl)-5,6,7,8-tetrahydro-pyrido[4,3-d]pyrimidin-2-yl]-amide] the BTX inhibition was 40.
With `O=C(CCc1ccccc1)NC1CCc2nc(NC(=O)c3ccc(F)cc3)ncc2C1` (centres unmarked) [Example 94, 4-fluoro-N-[6-(3-phenyl-propionylamino)-5,6,7,8-tetrahydro-quinazolin-2-yl]-benzamide] the BTX inhibition was 47.
Compound `O=C(Nc1ncc2c(n1)CCN(C(=O)Cc1c(Cl)cccc1Cl)C2)c1cccc(Cl)c1` [Example 187, 3-chloro-N-{6-[2-(2,6-dichloro-phenyl)-acetyl]-5,6,7,8-tetrahydro-pyrido[4,3-d]pyrimidin-2-yl}-benzamide] has a BTX inhibition of 43.
With `O=C(Nc1ncc2c(n1)CCN(C(=O)c1ccc(OC(F)(F)F)cc1)C2)c1cc(Cl)cc(Cl)c1` [Example 192, 3,5-dichloro-N-[6-(4-trifluoromethoxy-benzoyl)-5,6,7,8-tetrahydro-pyrido[4,3-d]pyrimidin-2-yl]-benzamide] the BTX inhibition was 87.
`COc1cccc(C(=O)Nc2ncc3c(n2)CCN(C(=O)c2cccc(OC(F)(F)F)c2)C3)c1` [Example 199, 3-methoxy-N-[6-(3-trifluoromethoxy-benzoyl)-5,6,7,8-tetrahydro-pyrido[4,3-d]pyrimidin-2-yl]-benzamide] gave a BTX inhibition of 48.
For `Cc1cc(C)c(S(=O)(=O)N2CCc3nc(NC(=O)c4ccc(Cl)c(Cl)c4)ncc3C2)c(C)c1` [Example 95, 3,4-dichloro-N-[6-(2,4,6-trimethyl-benzenesulfonyl)-5,6,7,8-tetrahydro-pyrido[4,3-d]pyrimidin-2-yl]-benzamide], the BTX inhibition was 77.
